Like-named read-outs stand apart in the source and are kept apart here.
Tests used:
Nav 1.7 = Nav 1.7 (Homo sapiens (Human), UniProt Q15858); assay: Inhibition of sodium channels, Red Membrane Potential Dye FLIPR assay, veratridine depolarization; assay type: cell-based; conditions: HEK-293 cells overexpressing the channel; read-out: Nav1.7 IC50
Nav 1.5 = Nav 1.5 (Homo sapiens (Human), UniProt Q14524); assay: as above; assay type: cell-based; conditions: HEK-293 cells overexpressing the channel; for inhibition at 10 µM: HEK-293 cells overexpressing Nav 1.5
Sequence of Nav 1.5 (Q14524 whole entry): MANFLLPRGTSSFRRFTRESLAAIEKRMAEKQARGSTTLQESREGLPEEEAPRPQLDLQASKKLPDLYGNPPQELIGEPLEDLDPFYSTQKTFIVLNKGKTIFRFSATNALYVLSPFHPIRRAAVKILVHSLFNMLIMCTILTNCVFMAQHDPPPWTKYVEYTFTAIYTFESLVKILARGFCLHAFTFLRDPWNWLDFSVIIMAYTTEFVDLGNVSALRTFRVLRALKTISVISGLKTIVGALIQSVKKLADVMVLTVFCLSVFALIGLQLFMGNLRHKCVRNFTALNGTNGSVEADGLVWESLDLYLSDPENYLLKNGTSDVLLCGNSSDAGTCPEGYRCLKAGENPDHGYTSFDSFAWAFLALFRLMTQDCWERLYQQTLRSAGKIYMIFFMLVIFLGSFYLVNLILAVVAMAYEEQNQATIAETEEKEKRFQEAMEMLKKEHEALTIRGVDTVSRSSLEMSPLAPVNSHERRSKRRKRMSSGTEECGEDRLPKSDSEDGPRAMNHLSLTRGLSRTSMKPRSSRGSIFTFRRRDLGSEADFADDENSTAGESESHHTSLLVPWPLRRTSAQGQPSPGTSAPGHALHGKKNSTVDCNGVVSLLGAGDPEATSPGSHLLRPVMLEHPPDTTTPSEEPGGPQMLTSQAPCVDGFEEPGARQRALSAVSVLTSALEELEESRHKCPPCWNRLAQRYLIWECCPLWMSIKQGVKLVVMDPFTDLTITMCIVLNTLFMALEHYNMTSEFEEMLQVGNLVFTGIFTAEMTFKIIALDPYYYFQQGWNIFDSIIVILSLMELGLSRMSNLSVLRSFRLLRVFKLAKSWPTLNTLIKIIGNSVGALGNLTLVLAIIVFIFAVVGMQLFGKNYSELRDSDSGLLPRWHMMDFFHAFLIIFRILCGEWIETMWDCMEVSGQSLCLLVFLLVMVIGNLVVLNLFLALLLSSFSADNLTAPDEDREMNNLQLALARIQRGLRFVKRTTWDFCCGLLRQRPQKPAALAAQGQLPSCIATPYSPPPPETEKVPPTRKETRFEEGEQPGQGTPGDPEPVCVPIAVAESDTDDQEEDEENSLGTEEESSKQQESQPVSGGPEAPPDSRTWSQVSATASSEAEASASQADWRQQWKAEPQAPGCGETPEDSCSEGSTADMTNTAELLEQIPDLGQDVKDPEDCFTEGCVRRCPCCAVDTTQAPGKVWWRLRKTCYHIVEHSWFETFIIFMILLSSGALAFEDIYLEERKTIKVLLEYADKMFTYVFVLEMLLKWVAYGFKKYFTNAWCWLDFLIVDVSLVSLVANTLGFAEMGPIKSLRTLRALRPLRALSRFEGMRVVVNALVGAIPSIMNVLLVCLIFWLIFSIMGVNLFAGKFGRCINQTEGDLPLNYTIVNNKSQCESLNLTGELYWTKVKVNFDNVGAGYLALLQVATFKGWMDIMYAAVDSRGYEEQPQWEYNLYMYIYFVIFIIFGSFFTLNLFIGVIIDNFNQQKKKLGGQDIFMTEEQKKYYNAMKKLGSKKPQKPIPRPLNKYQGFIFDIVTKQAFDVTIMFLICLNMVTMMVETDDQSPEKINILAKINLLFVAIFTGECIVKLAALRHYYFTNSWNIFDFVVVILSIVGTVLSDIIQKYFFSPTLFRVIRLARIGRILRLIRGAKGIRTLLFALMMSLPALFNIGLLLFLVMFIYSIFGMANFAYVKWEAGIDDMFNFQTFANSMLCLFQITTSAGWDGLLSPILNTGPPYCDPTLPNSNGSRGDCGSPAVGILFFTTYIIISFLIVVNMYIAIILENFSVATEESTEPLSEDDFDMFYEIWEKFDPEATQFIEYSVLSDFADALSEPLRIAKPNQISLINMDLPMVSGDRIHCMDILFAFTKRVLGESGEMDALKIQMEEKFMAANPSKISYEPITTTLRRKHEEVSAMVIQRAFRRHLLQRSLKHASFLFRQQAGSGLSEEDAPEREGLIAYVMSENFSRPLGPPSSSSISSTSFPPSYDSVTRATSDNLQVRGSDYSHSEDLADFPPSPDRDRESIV

[1] = read-out: Nav1.5 IC50 (bound given in μM)

Sequence of Nav 1.7 (Q15858 whole entry): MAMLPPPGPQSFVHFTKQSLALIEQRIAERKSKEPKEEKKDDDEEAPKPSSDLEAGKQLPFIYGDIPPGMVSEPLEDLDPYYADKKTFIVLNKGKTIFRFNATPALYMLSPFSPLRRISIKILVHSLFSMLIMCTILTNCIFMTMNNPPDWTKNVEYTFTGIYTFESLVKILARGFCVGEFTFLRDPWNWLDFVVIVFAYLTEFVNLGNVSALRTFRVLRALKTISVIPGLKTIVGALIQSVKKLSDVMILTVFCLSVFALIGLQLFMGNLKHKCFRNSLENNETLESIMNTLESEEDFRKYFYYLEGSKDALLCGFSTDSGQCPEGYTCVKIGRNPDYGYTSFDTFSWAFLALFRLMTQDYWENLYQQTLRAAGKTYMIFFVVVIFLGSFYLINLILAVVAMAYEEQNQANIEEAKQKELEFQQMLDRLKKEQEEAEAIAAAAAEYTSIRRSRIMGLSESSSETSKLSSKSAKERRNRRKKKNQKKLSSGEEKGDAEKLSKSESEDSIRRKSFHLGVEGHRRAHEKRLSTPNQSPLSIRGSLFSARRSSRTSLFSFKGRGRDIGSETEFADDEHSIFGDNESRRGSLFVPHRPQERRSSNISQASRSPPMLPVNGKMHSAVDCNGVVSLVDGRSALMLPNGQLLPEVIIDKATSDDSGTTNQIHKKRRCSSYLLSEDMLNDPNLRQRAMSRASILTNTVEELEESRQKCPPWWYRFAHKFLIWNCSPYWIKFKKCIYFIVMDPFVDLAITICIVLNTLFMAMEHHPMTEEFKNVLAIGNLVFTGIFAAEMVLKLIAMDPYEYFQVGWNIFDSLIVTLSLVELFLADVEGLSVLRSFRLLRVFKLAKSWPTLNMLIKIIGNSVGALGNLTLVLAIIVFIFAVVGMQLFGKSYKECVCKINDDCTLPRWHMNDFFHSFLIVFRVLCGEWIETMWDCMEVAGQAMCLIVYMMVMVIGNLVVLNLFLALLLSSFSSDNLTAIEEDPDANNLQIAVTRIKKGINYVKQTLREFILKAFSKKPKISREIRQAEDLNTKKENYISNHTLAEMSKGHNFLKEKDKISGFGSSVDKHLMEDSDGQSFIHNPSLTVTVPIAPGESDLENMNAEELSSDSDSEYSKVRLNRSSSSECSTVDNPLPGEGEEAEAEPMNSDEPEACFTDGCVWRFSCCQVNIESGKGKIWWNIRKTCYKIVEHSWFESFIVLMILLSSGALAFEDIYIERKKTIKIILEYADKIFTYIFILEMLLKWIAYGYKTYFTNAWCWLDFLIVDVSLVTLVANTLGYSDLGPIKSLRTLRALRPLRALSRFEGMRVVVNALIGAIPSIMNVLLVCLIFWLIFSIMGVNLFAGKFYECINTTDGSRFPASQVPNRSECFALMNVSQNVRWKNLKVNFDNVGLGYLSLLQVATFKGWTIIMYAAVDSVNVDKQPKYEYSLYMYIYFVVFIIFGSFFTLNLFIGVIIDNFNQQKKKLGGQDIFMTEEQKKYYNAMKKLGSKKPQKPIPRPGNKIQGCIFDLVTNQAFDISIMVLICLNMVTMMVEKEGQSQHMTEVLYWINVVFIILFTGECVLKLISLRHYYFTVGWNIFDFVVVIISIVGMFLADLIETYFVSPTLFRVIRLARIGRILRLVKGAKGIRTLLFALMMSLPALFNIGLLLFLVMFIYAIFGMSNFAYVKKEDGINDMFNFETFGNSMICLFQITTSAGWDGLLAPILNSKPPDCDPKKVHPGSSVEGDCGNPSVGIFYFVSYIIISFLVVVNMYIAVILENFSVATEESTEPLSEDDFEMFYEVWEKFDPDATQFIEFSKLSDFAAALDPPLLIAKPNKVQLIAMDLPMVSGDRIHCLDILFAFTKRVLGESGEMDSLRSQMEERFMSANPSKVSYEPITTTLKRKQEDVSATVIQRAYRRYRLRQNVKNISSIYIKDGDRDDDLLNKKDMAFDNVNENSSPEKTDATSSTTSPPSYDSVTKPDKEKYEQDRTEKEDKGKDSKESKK

| Compound | IC50 (Nav 1.7) | IC50 (Nav 1.5; read-out: Nav1.5 IC50) | IC50 (Nav 1.5; [1]) | Nav1.5 % inhibition @ 10 μM (Nav 1.5) | inhibition at 10 µM (Nav 1.5) |
| --- | --- | --- | --- | --- | --- |
| O=S(=O)(Nc1cccc(F)n1)c1ccc2c(c1)OCC[C@@H]2c1ccc(C(F)(F)F)cc1CCCCF (racemic) [Example 167, (R/S)-4-(2-(4-fluorobutyl)-4-(trifluoromethyl)phenyl)-N-(6-fluoropyridin-2-yl)chroman-7-sulfonamide] | 58 nM | 0.241 µM | – | – | – |
| O=S(=O)(Nc1ncccn1)c1ccc2c(c1)OCC[C@@H]2c1ccc(C(F)(F)F)cc1CCCCF (racemic) [Example 163, (R/S)-4-(2-(4-fluorobutyl)-4-(trifluoromethyl)phenyl)-N-(pyrimidin-2-yl)chroman-7-sulfonamide] | 42 nM | 0.307 µM | – | – | – |
| Cc1nc(-c2cc(C(F)(F)F)ccc2[C@@H]2CCOc3cc(S(=O)(=O)Nc4cccnn4)ccc32)co1 [Example 79, (S&R)-4-(2-(2-methyloxazol-4-yl)-4-(trifluoromethyl)phenyl)-N-(pyridazin-3-yl)chroman-7-sulfonamide] | 2520 nM | – | > 10 µM | – | – |
| Cc1ccc(NS(=O)(=O)c2ccc3c(c2)OCC[C@@H]3c2ccc(C(F)(F)F)cc2-c2ccnn2C)nc1 [Example 22, (S&R)-4-(2-(1-methyl-1H-pyrazol-5-yl)-4-(trifluoromethyl)phenyl)-N-(5-methylpyridin-2-yl)chroman-7-sulfonamide] | 2060 nM | – | – | 74% | – |
| O=C1CCCN1c1cc(C(F)(F)F)ccc1[C@H]1CCOc2cc(S(=O)(=O)Nc3ncc(F)cn3)ccc21 [Example 114, (S&R)—N-(5-fluoropyrimidin-2-yl)-4-(2-(2-oxopyrrolidin-1-yl)-4-(trifluoromethyl)phenyl)chroman-7-sulfonamide] | 624 nM | – | > 10 µM | – | – |
| CS(=O)(=O)CCc1cc(C(F)(F)F)ccc1[C@H]1CCOc2cc(S(=O)(=O)Nc3ccncn3)ccc21 [Example 88, (S&R)-4-(2-(2-(Methylsulfonyl)ethyl)-4-(trifluoromethyl)phenyl)-N-(pyrimidin-4-yl) chroman-7-sulfonamide] | 626 nM | – | > 10 µM | – | – |
| O=S(=O)(Nc1ccncn1)c1ccc2c(c1)OCC[C@@H]2c1ccc(C(F)(F)F)cc1O[C@H]1CCOC1 (racemic) [Example-183, (S/R)—N-(pyrimidin-4-yl)-4-(2-(((S)-tetrahydrofuran-3-yl)oxy)-4-(trifluoromethyl)phenyl)chroman-7-sulfonamide] | 11 nM | – | > 10 µM | – | – |
| COCCCc1cc(C(F)(F)F)ccc1[C@H]1CCOc2cc(S(=O)(=O)Nc3ncc(F)cn3)ccc21 (racemic) [Example 142, (R/S)—N-(5-fluoropyrimidin-2-yl)-4-(2-(3-methoxypropyl)-4-(trifluoromethyl)phenyl)chroman-7-sulfonamide] | 179 nM | – | > 10 µM | – | – |
| COCCc1cc(C(F)(F)F)ccc1[C@H]1CCOc2cc(S(=O)(=O)Nc3cccc(F)n3)ccc21 (racemic) [Example 137, (R/S)—N-(6-fluoropyridin-2-yl)-4-(2-(2-methoxyethyl)-4-(trifluoromethyl)phenyl)chroman-7-sulfonamide] | 12 nM | 3.64 µM | – | – | – |
| O=S(=O)(Nc1cccc(F)n1)c1ccc2c(c1)OCCC2c1ccc(C(F)(F)F)cc1O[C@H]1CCOC1 (stereo partly drawn) [Example-181, (R&S)—N-(6-fluoropyridin-2-yl)-4-(2-(((S)-tetrahydrofuran-3-yl)oxy)-4-(trifluoromethyl)phenyl)chroman-7-sulfonamide] | 0.9 nM | – | – | 43% | – |
| O=S(=O)(Nc1ncc(F)cn1)c1ccc2c(c1)OCC[C@@H]2c1ccc(C(F)(F)F)cc1Cl (racemic) [Example 105, (S/R)-4-(2-Chloro-4-(trifluoromethyl)phenyl)-N-(5-fluoropyrimidin-2-yl)chroman-7-sulfonamide] | 1510 nM | – | > 10 µM | – | – |
| CC(C)Oc1cccc(NS(=O)(=O)c2ccc3c(c2)OCC[C@@H]3c2ccc(C(F)(F)F)cc2-c2ccnn2C)n1 [Example 26, (S&R)—N-(6-isopropoxypyridin-2-yl)-4-(2-(1-methyl-1H-pyrazol-5-yl)-4-(trifluoromethyl)phenyl)chroman-7-sulfonamide] | 685 nM | – | > 10 µM | – | – |
| O=C1COCCN1c1cc(C(F)(F)F)ccc1[C@H]1CCOc2cc(S(=O)(=O)Nc3ncccn3)ccc21 [Example-231, (S&R)-4-(2-(3-oxomorpholino)-4-(trifluoromethyl)phenyl)-N-(pyrimidin-2-yl)chroman-7-sulfonamide] | 559 nM | – | > 10 µM | – | – |
| O=C1CCCN1c1cc(C(F)(F)F)ccc1[C@H]1CCOc2cc(S(=O)(=O)Nc3cccc(F)n3)ccc21 [Example 112, (S&R)—N-(6-Fluoropyridin-2-yl)-4-(2-(2-oxopyrrolidin-1-yl)-4-(trifluoromethyl)phenyl)chroman-7-sulfonamide] | 801 nM | – | – | 65% | – |
| CC(C)Oc1ccc([C@@H]2CCOc3cc(S(=O)(=O)Nc4cccc(F)n4)ccc32)c(-c2ccnn2C)c1 [Example 33, (S&R)—N-(6-fluoropyridin-2-yl)-4-(4-isopropoxy-2-(1-methyl-1H-pyrazol-5-yl)phenyl)chroman-7-sulfonamide] | 514 nM | – | > 10 µM | – | – |
| O=S(=O)(Nc1cccnn1)c1ccc2c(c1)OCC[C@@H]2c1ccc(C(F)(F)F)cc1-n1ccnn1 [Example 54, (S&R)-4-(2-(1H-1,2,3-Triazol-1-yl)-4-(trifluoromethyl)phenyl)-N-(pyridazin-3-yl)chromane-7-sulfonamide] | 706 nM | – | > 10 µM | – | – |
| O=S(=O)(Nc1ncccn1)c1ccc2c(c1)OCC[C@@H]2c1ccc(C(F)(F)F)cc1CCCF (racemic) [Example 158, (R/S)-4-(2-(3-fluoropropyl)-4-(trifluoromethyl)phenyl)-N-(pyrimidin-2-yl)chroman-7-sulfonamide] | 130 nM | 0.505 µM | – | – | – |
| O=S(=O)(Nc1ncc(F)cn1)c1ccc2c(c1)OCC[C@@H]2c1ccc(C(F)(F)F)cc1OC1COC1 (racemic) [Example-218, (S/R)—N-(5-fluoropyrimidin-2-yl)-4-(2-(oxetan-3-yloxy)-4-(trifluoromethyl)phenyl)chroman-7-sulfonamide] | 43 nM | – | > 10 µM | – | – |
| O=S(=O)(Nc1ccncn1)c1ccc2c(c1)OCC[C@@H]2c1ccc(C(F)(F)F)cc1-c1nccs1 (racemic) [Example 94, (R/S)—N-(pyrimidin-4-yl)-4-(2-(thiazol-2-yl)-4-(trifluoromethyl)phenyl)chroman-7-sulfonamide] | 3 nM | – | – | – | 51% |
| CCCc1cc(C(F)(F)F)ccc1[C@@H]1CCOc2cc(S(=O)(=O)Nc3ncccn3)ccc21 [Example-238, (S&R)-4-(2-propyl-4-(trifluoromethyl)phenyl)-N-(pyrimidin-2-yl)chroman-7-sulfonamide] | 1760 nM | – | > 10 µM | – | – |
| O=S(=O)(Nc1cccc(F)n1)c1ccc2c(c1)OCC[C@@H]2c1ccc(C(F)(F)F)cc1Cl (racemic) [Example 108, (S/R)-4-(2-chloro-4-(trifluoromethyl)phenyl)-N-(6-fluoropyridin-2-yl)chroman-7-sulfonamide] | 57 nM | 2.18 µM | – | – | – |
| COCCc1cc(C(F)(F)F)ccc1[C@H]1CCOc2cc(S(=O)(=O)Nc3cccnn3)ccc21 (racemic) [Example 139, (R/S)-4-(2-(2-methoxyethyl)-4-(trifluoromethyl)phenyl)-N-(pyridazin-3-yl)chroman-7-sulfonamide] | 33 nM | – | > 10 µM | – | – |
| O=S(=O)(Nc1ncccn1)c1ccc2c(c1)OCC[C@@H]2c1ccc(C(F)(F)F)cc1OC1CCOCC1 [Example-169, (R&S)—N-(pyrimidin-2-yl)-4-(2-((tetrahydro-2H-pyran-4-yl)oxy)-4-(trifluoromethyl)phenyl)chroman-7-sulfonamide] | 43 nM | 4.89 µM | – | – | – |
| O=S(=O)(Nc1cccc(F)n1)c1ccc2c(c1)OCCC2c1ccc(C(F)(F)F)cc1O[C@H]1CCOC1 (stereo partly drawn) [Example-180, (R&S)—N-(6-fluoropyridin-2-yl)-4-(2-(((S)-tetrahydrofuran-3-yl)oxy)-4-(trifluoromethyl)phenyl)chroman-7-sulfonamide] | 831 nM | – | > 10 µM | – | – |
| O=S(=O)(Nc1cccnn1)c1ccc2c(c1)OCC[C@H]2c1ccc(C(F)(F)F)cc1OC1CCOCC1 [Example-174, (R&S)—N-(pyridazin-3-yl)-4-(2-((tetrahydro-2H-pyran-4-yl)oxy)-4-(trifluoromethyl)phenyl)chroman-7-sulfonamide] | 2460 nM | – | > 10 µM | – | – |
| O=S(=O)(Nc1ncccn1)c1ccc2c(c1)OCCC2c1ccc(C(F)(F)F)cc1O[C@H]1CCOC1 (stereo partly drawn) [Example-178, (R&S)—N-(pyrimidin-2-yl)-4-(2-(((S)-tetrahydrofuran-3-yl)oxy)-4-(trifluoromethyl)phenyl)chroman-7-sulfonamide] | 149 nM | – | > 10 µM | – | – |
| O=S(=O)(Nc1cccnn1)c1ccc2c(c1)OCC[C@@H]2c1ccc(C(F)(F)F)cc1N1CCOCC1 (racemic) [Example 122, (R/S)-4-(2-morpholino-4-(trifluoromethyl)phenyl)-N-(pyridazin-3-yl)chroman-7-sulfonamide] | 38 nM | – | – | – | 54% |
| O=S(=O)(Nc1ncccn1)c1ccc2c(c1)OCC[C@H]2c1ccc(C(F)(F)F)cc1OC1COC1 [Example-216, (R&S)-4-(2-(oxetan-3-yloxy)-4-(trifluoromethyl)phenyl)-N-(pyrimidin-2-yl)chroman-7-sulfonamide] | 2730 nM | – | > 10 µM | – | – |
| COCCOc1cc(C(F)(F)F)ccc1[C@H]1CCOc2cc(S(=O)(=O)Nc3ncccn3)ccc21 [Example 125, (S&R)-4-(2-(2-methoxyethoxy)-4-(trifluoromethyl)phenyl)-N-(pyrimidin-2-yl)chroman-7-sulfonamide] | 395 nM | 2.64 µM | – | – | – |
| COCCCc1cc(C(F)(F)F)ccc1[C@H]1CCOc2cc(S(=O)(=O)Nc3cccnn3)ccc21 (racemic) [Example 144, (R/S)-4-(2-(3-methoxypropyl)-4-(trifluoromethyl)phenyl)-N-(pyridazin-3-yl)chroman-7-sulfonamide] | 86 nM | 2.68 µM | – | – | – |

Source: US10239869B2, “Sulfonamide compounds as voltage-gated sodium channel modulators” (LUPIN LIMITED, priority 2015, dated 2019)
